# Source: patent publication US20260345619A1 (Principia Biopharma Inc., priority 2023, published 2026)
# Test: Pre-bronchodilator FEV1 and percent predicted FEV1 by spirometry, change from baseline
# Assay type: in vivo, human
# Conditions: 400 mg BID, Week 12
# Protocol: Spirometry is a standard test to measure patients' lung function.
# The primary endpoint was the proportion of patients with LOAC. The key secondary endpoint for the study was change in pre-bronchodilator FEV1 from baseline at EOT.
# Reversibility is defined as an increase of the absolute FEV1 after administration of bronchodilator and is measured by spirometry as postbronchodilator increase in FEV1 in percent of the prebronchodilator FEV1. After spirometry for measuring prebronchodilator FEV1, participants were to receive 2-4 puffs of albuterol/salbutamol or levalbuterol/levosalbutamol from a primed MDI. The postbronchodilator spirometry may have been repeated several times within 30 minutes after administration of bronchodilator. Alternatively, and only if it was consistent with usual office practice (to be documented), reversibility may have been performed using inhalation of nebulized albuterol/salbutamol or levalbuterol/levosalbutamol.
# Secondary endpoints included pre-bronchodilator FEV1 change from baseline at EOT, ACQ-5 score change from baseline, and AQLQ score change from baseline. Other secondary and exploratory endpoints are described in Table 2.
# [1] = >2 exacerbations within 2 years
# [2] = baseline FEV1 <2.022 L (median)
# [3] = baseline FEV1 reversibility <12%
# [4] = baseline FEV1 reversibility ≥12%
# [5] = baseline FEV1 ≥2.022 L (median)
# [6] = baseline IgE <210.8 IU/mL (median)
# [7] = baseline IgE ≥210.8 IU/mL (median)
# [8] = baseline blood eosinophils <0.15 10^9/L
# [9] = baseline blood eosinophils <0.3 10^9/L
# [10] = baseline blood eosinophils ≥0.15 10^9/L
# [11] = baseline blood eosinophils ≥0.3 10^9/L
# [12] = baseline percent predicted FEV1 <68% (median)
# [13] = baseline percent predicted FEV1 ≥68% (median)
structure (smiles),measurement,setting,value
"CC(C)(C=C(C#N)C(=O)N1CCC[C@@H](n2nc(-c3ccc(Oc4ccccc4)cc3F)c3c(N)ncnc32)C1)N1CCN(C2COC2)CC1 (mixture of isomers) [rilzabrutinib, (R)-2-[3-[4-amino-3-(2-fluoro-4-phenoxy-phenyl)pyrazolo[3,4-d]pyrimidin-1-yl]piperidine-1-carbonyl]-4-methyl-4-[4-(oxetan-3-yl)piperazin-1-yl]pent-2-enenitrile]","Pre-bronchodilator FEV1 change from baseline, LS Mean",1 exacerbation within 2 years,-0.08 L
same,"Pre-bronchodilator FEV1 change from baseline, LS Mean Diff vs. placebo",1 exacerbation within 2 years,-0.05 L
same,"Pre-bronchodilator FEV1 change from baseline, Mean",1 exacerbation within 2 years,0.05 L
same,"Pre-bronchodilator FEV1 change from baseline, LS Mean",2 exacerbations within 2 years,-0.01 L
same,"Pre-bronchodilator FEV1 change from baseline, LS Mean Diff vs. placebo",2 exacerbations within 2 years,0.10 L
same,"Pre-bronchodilator FEV1 change from baseline, Mean",2 exacerbations within 2 years,-0.06 L
same,"Pre-bronchodilator FEV1 change from baseline, LS Mean",[1],-0.36 L
same,"Pre-bronchodilator FEV1 change from baseline, LS Mean Diff vs. placebo",[1],-0.16 L
same,"Pre-bronchodilator FEV1 change from baseline, Mean",[1],-0.15 L
same,"Pre-bronchodilator FEV1 change from baseline, Mean",APAC,-0.09 L
same,"Pre-bronchodilator FEV1 change from baseline, Mean",Eastern Europe,-0.21 L
same,"Pre-bronchodilator FEV1 change from baseline, LS Mean",Latin America,-0.07 L
same,"Pre-bronchodilator FEV1 change from baseline, LS Mean Diff vs. placebo",Latin America,-0.01 L
same,"Pre-bronchodilator FEV1 change from baseline, Mean",Latin America,-0.05 L
same,"Pre-bronchodilator FEV1 change from baseline, Mean",Western Countries,0.24 L
same,"Pre-bronchodilator FEV1 change from baseline, LS Mean",age <45 years,-0.13 L
same,"Pre-bronchodilator FEV1 change from baseline, LS Mean Diff vs. placebo",age <45 years,-0.13 L
same,"Pre-bronchodilator FEV1 change from baseline, Mean",age <45 years,-0.05 L
same,"Pre-bronchodilator FEV1 change from baseline, LS Mean",age ≥45 years,-0.14 L
same,"Pre-bronchodilator FEV1 change from baseline, LS Mean Diff vs. placebo",age ≥45 years,0.02 L
same,"Pre-bronchodilator FEV1 change from baseline, Mean",age ≥45 years,-0.03 L
same,"Pre-bronchodilator FEV1 change from baseline, LS Mean",asthma onset age <12 years,0.12 L
same,"Pre-bronchodilator FEV1 change from baseline, LS Mean Diff vs. placebo",asthma onset age <12 years,0.18 L
same,"Pre-bronchodilator FEV1 change from baseline, Mean",asthma onset age <12 years,0.00 L
same,"Pre-bronchodilator FEV1 change from baseline, LS Mean",asthma onset age <18 years,-0.00 L
same,"Pre-bronchodilator FEV1 change from baseline, LS Mean Diff vs. placebo",asthma onset age <18 years,0.08 L
same,"Pre-bronchodilator FEV1 change from baseline, Mean",asthma onset age <18 years,0.04 L
same,"Pre-bronchodilator FEV1 change from baseline, Mean",asthma onset age ≥12-<18 years,0.12 L
same,"Pre-bronchodilator FEV1 change from baseline, LS Mean",asthma onset age ≥18-<40 years,-0.14 L
same,"Pre-bronchodilator FEV1 change from baseline, LS Mean Diff vs. placebo",asthma onset age ≥18-<40 years,0.00 L
same,"Pre-bronchodilator FEV1 change from baseline, Mean",asthma onset age ≥18-<40 years,-0.08 L
same,"Pre-bronchodilator FEV1 change from baseline, LS Mean",asthma onset age ≥18 years,-0.17 L
same,"Pre-bronchodilator FEV1 change from baseline, LS Mean Diff vs. placebo",asthma onset age ≥18 years,-0.03 L
same,"Pre-bronchodilator FEV1 change from baseline, Mean",asthma onset age ≥18 years,-0.11 L
same,"Pre-bronchodilator FEV1 change from baseline, LS Mean",asthma onset age ≥40 years,0.00 L
same,"Pre-bronchodilator FEV1 change from baseline, LS Mean Diff vs. placebo",asthma onset age ≥40 years,0.07 L
same,"Pre-bronchodilator FEV1 change from baseline, Mean",asthma onset age ≥40 years,-0.31 L
same,"Pre-bronchodilator FEV1 change from baseline, LS Mean",atopic medical conditions: No,-0.15 L
same,"Pre-bronchodilator FEV1 change from baseline, LS Mean Diff vs. placebo",atopic medical conditions: No,0.10 L
same,"Pre-bronchodilator FEV1 change from baseline, Mean",atopic medical conditions: No,-0.16 L
same,"Pre-bronchodilator FEV1 change from baseline, LS Mean",atopic medical conditions: Yes,0.02 L
same,"Pre-bronchodilator FEV1 change from baseline, LS Mean Diff vs. placebo",atopic medical conditions: Yes,-0.03 L
same,"Pre-bronchodilator FEV1 change from baseline, Mean",atopic medical conditions: Yes,0.03 L
same,"Pre-bronchodilator FEV1 change from baseline, LS Mean",background ICS/LABA dose High,-0.11 L
same,"Pre-bronchodilator FEV1 change from baseline, LS Mean Diff vs. placebo",background ICS/LABA dose High,0.02 L
same,"Pre-bronchodilator FEV1 change from baseline, Mean",background ICS/LABA dose High,-0.05 L
same,"Pre-bronchodilator FEV1 change from baseline, Mean",background ICS/LABA dose Medium,0.04 L
same,"Pre-bronchodilator FEV1 change from baseline, LS Mean",baseline ACQ-5 >2,-0.12 L
same,"Pre-bronchodilator FEV1 change from baseline, LS Mean Diff vs. placebo",baseline ACQ-5 >2,-0.04 L
same,"Pre-bronchodilator FEV1 change from baseline, Mean",baseline ACQ-5 >2,-0.09 L
same,"Pre-bronchodilator FEV1 change from baseline, LS Mean",baseline ACQ-5 ≤2,-0.12 L
same,"Pre-bronchodilator FEV1 change from baseline, LS Mean Diff vs. placebo",baseline ACQ-5 ≤2,0.04 L
same,"Pre-bronchodilator FEV1 change from baseline, Mean",baseline ACQ-5 ≤2,0.00 L
same,"Pre-bronchodilator FEV1 change from baseline, LS Mean",baseline BMI <25 kg/m^2,-0.09 L
same,"Pre-bronchodilator FEV1 change from baseline, LS Mean Diff vs. placebo",baseline BMI <25 kg/m^2,0.15 L
same,"Pre-bronchodilator FEV1 change from baseline, Mean",baseline BMI <25 kg/m^2,0.02 L
same,"Pre-bronchodilator FEV1 change from baseline, LS Mean",baseline BMI ≥25-<30 kg/m^2,-0.06 L
same,"Pre-bronchodilator FEV1 change from baseline, LS Mean Diff vs. placebo",baseline BMI ≥25-<30 kg/m^2,0.06 L
same,"Pre-bronchodilator FEV1 change from baseline, Mean",baseline BMI ≥25-<30 kg/m^2,-0.00 L
same,"Pre-bronchodilator FEV1 change from baseline, LS Mean",baseline BMI ≥30 kg/m^2,-0.04 L
same,"Pre-bronchodilator FEV1 change from baseline, LS Mean Diff vs. placebo",baseline BMI ≥30 kg/m^2,-0.13 L
same,"Pre-bronchodilator FEV1 change from baseline, Mean",baseline BMI ≥30 kg/m^2,-0.18 L
same,"Pre-bronchodilator FEV1 change from baseline, LS Mean",[2],-0.08 L
same,"Pre-bronchodilator FEV1 change from baseline, LS Mean Diff vs. placebo",[2],0.04 L
same,"Pre-bronchodilator FEV1 change from baseline, Mean",[2],-0.06 L
same,"Pre-bronchodilator FEV1 change from baseline, LS Mean",[3],-0.23 L
same,"Pre-bronchodilator FEV1 change from baseline, LS Mean Diff vs. placebo",[3],-0.00 L
same,"Pre-bronchodilator FEV1 change from baseline, Mean",[3],-0.24 L
same,"Pre-bronchodilator FEV1 change from baseline, LS Mean",[4],0.07 L
same,"Pre-bronchodilator FEV1 change from baseline, LS Mean Diff vs. placebo",[4],-0.05 L
same,"Pre-bronchodilator FEV1 change from baseline, Mean",[4],0.08 L
same,"Pre-bronchodilator FEV1 change from baseline, LS Mean",[5],-0.09 L
same,"Pre-bronchodilator FEV1 change from baseline, LS Mean Diff vs. placebo",[5],-0.03 L
same,"Pre-bronchodilator FEV1 change from baseline, Mean",[5],-0.02 L
same,"Pre-bronchodilator FEV1 change from baseline, LS Mean",baseline FeNO <25 ppb,-0.16 L
same,"Pre-bronchodilator FEV1 change from baseline, LS Mean Diff vs. placebo",baseline FeNO <25 ppb,0.03 L
same,"Pre-bronchodilator FEV1 change from baseline, Mean",baseline FeNO <25 ppb,-0.12 L
same,"Pre-bronchodilator FEV1 change from baseline, LS Mean",baseline FeNO <35 ppb,-0.19 L
same,"Pre-bronchodilator FEV1 change from baseline, LS Mean Diff vs. placebo",baseline FeNO <35 ppb,-0.04 L
same,"Pre-bronchodilator FEV1 change from baseline, Mean",baseline FeNO <35 ppb,-0.10 L
same,"Pre-bronchodilator FEV1 change from baseline, LS Mean",baseline FeNO ≥25 ppb,-0.00 L
same,"Pre-bronchodilator FEV1 change from baseline, LS Mean Diff vs. placebo",baseline FeNO ≥25 ppb,-0.01 L
same,"Pre-bronchodilator FEV1 change from baseline, Mean",baseline FeNO ≥25 ppb,0.01 L
same,"Pre-bronchodilator FEV1 change from baseline, LS Mean",baseline FeNO ≥35 ppb,0.05 L
same,"Pre-bronchodilator FEV1 change from baseline, LS Mean Diff vs. placebo",baseline FeNO ≥35 ppb,0.06 L
same,"Pre-bronchodilator FEV1 change from baseline, Mean",baseline FeNO ≥35 ppb,0.08 L
same,"Pre-bronchodilator FEV1 change from baseline, LS Mean",baseline IgE <100 IU/mL,-0.11 L
same,"Pre-bronchodilator FEV1 change from baseline, LS Mean Diff vs. placebo",baseline IgE <100 IU/mL,-0.03 L
same,"Pre-bronchodilator FEV1 change from baseline, Mean",baseline IgE <100 IU/mL,-0.09 L
same,"Pre-bronchodilator FEV1 change from baseline, LS Mean",[6],-0.11 L
same,"Pre-bronchodilator FEV1 change from baseline, LS Mean Diff vs. placebo",[6],0.01 L
same,"Pre-bronchodilator FEV1 change from baseline, Mean",[6],-0.02 L
same,"Pre-bronchodilator FEV1 change from baseline, LS Mean",baseline IgE ≥100 IU/mL,-0.04 L
same,"Pre-bronchodilator FEV1 change from baseline, LS Mean Diff vs. placebo",baseline IgE ≥100 IU/mL,0.02 L
same,"Pre-bronchodilator FEV1 change from baseline, Mean",baseline IgE ≥100 IU/mL,-0.02 L
same,"Pre-bronchodilator FEV1 change from baseline, LS Mean",[7],-0.02 L
same,"Pre-bronchodilator FEV1 change from baseline, LS Mean Diff vs. placebo",[7],0.01 L
same,"Pre-bronchodilator FEV1 change from baseline, Mean",[7],-0.08 L
same,"Pre-bronchodilator FEV1 change from baseline, LS Mean",[8],-0.08 L
same,"Pre-bronchodilator FEV1 change from baseline, LS Mean Diff vs. placebo",[8],-0.04 L
same,"Pre-bronchodilator FEV1 change from baseline, Mean",[8],-0.10 L
same,"Pre-bronchodilator FEV1 change from baseline, LS Mean",[9],-0.15 L
same,"Pre-bronchodilator FEV1 change from baseline, LS Mean Diff vs. placebo",[9],-0.07 L
same,"Pre-bronchodilator FEV1 change from baseline, Mean",[9],-0.10 L
same,"Pre-bronchodilator FEV1 change from baseline, LS Mean",[10],-0.03 L
same,"Pre-bronchodilator FEV1 change from baseline, LS Mean Diff vs. placebo",[10],0.07 L
same,"Pre-bronchodilator FEV1 change from baseline, Mean",[10],-0.01 L
same,"Pre-bronchodilator FEV1 change from baseline, LS Mean Diff vs. placebo",[11],0.07 L
same,"Pre-bronchodilator FEV1 change from baseline, Mean",[11],0.04 L
same,"Pre-bronchodilator FEV1 change from baseline, LS Mean",[12],-0.21 L
same,"Pre-bronchodilator FEV1 change from baseline, LS Mean Diff vs. placebo",[12],0.03 L
same,"Pre-bronchodilator FEV1 change from baseline, Mean",[12],-0.05 L
same,"Pre-bronchodilator FEV1 change from baseline, LS Mean",[13],-0.07 L
same,"Pre-bronchodilator FEV1 change from baseline, LS Mean Diff vs. placebo",[13],-0.01 L
same,"Pre-bronchodilator FEV1 change from baseline, Mean",[13],-0.02 L
same,"Pre-bronchodilator FEV1 change from baseline, Mean",baseline weight <60 kg,-0.02 L
same,"Pre-bronchodilator FEV1 change from baseline, LS Mean",baseline weight ≥60-<90 kg,-0.09 L
same,"Pre-bronchodilator FEV1 change from baseline, LS Mean Diff vs. placebo",baseline weight ≥60-<90 kg,0.03 L
same,"Pre-bronchodilator FEV1 change from baseline, Mean",baseline weight ≥60-<90 kg,-0.01 L
